Results taken from paper PMC11747885, “Potent inhibitors of the human RNA ligase Rlig1 highlights its role in RNA integrity maintenance under oxidative cellular stress” (Chemical Science, 2025).
“And” between values parts separate entries of the source, which are not always exact repeats. Identical values can stand only once. “Also recorded” adds a separate entry of the source. Marks after values point to notes of the source that are not given here.

Experiments:
[1] = Cell viability assay of HEK293 cells treated with inhibitors and menadione; assay type: cell-based, human; details: human, HEK293 cells, w/o Menadione; for viability at 7.5 µM: 7.5 µM compound; for viability at 15 µM: 15 µM compound; for viability at 30 µM: 30 µM compound; for viability at 60 µM: 60 µM compound
[2] = system: HEK293 cells; assay: as above; assay type: cell-based, human; details: for Mean Diff, (Predicted (LS) mean diff,) w/o menadione - w menadione: 2 way ANOVA, Šídák's multiple comparisons test, normalised viability
[3] = in vitro; details: human
[4] = target: T1, Rlig1-AMP (Homo sapiens, UniProt Q8N999); assay: Radioactive RNA ligation assay (hit validation, 10 µM test and IC50 determination); assay type: biochemical; details: for inhibition of Rlig1-AMP ligation (urea-PAGE): 10 μM compound, 500 nM Rlig1-AMP, 20 min 37 °C; for HillSlope (best-fit value) / Span (best-fit value) / IC50 / LogIC50 (best-fit value): four-parameter fit; for IC50: n = 3, read-out: IC50 (best-fit value); for inhibition at 30 µM: log Compound [µM] 1.47712; for LogIC50 (best-fit value): log of µM; for Bottom (best-fit value) / Top (best-fit value): log(inhibitor) vs. response, variable slope (four parameters)
T1 construct: made in house; host or cells: E. coli BL21 (DE3), pET15b-Rlig1

[5] = system: HEK293 cells; assay: Cell viability assay of HEK293 cells treated with inhibitors (CellTiter-Glo); details: for cytotoxicity (in words) / EC50: HEK293, 24 h; for cytotoxicity (in words): up to 30 μM; for IC50 (Figure 3D: EC50 values for plot; log(inhibitor) vs. response -- Variable slope (four parameters)) / LogIC50 (log(inhibitor) vs. response -- Variable slope (four parameters)): HEK293 cell viability, fit per plate (3 plates, 4 technical replicates each); for IC50 (Figure 3D: EC50 values for plot; log(inhibitor) vs. response -- Variable slope (four parameters)): highest tested concentration 30 µM; for LogIC50 (log(inhibitor) vs. response -- Variable slope (four parameters)): log of [µM]; for EC50: Homo sapiens
[6] = 20240508 plate 012, DMSO Ko no Mendione = 100
[7] = 20240508 plate 013, DMSO Ko no Mendione = 100
[8] = 20240515 plate 014, DMSO Ko no Mendione = 100
[9] = 20240515 plate 015, DMSO Ko no Mendione = 100
[10] = replicates I-III, read-out: percentage inhibition (dose response curve for IC50)

T1 sequence (Q8N999 whole entry): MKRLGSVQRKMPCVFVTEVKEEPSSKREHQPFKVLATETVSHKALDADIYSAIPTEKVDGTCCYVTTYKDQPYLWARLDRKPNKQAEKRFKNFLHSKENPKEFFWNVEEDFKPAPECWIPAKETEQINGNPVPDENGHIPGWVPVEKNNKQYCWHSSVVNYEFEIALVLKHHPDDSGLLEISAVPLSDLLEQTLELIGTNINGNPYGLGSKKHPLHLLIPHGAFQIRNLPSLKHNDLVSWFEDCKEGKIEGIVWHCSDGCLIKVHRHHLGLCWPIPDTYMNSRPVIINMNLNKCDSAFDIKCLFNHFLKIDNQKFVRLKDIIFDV

## Nc1cc(Nc2ccc(NC(=O)c3ccc(Nc4ccnc5ccccc45)cc3)cc2)ccn1 [Compound 36]
[1]; [6]
  viability at 7.5 µM: 91%
  viability at 15 µM: 98.9%
  viability at 30 µM: 85.2%
  viability at 60 µM: 82.1%
[1]; [7]
  viability at 7.5 µM: 101%
  viability at 15 µM: 99.3%
  viability at 30 µM: 98.7%
  viability at 60 µM: 89.4%
[1]; [8]
  viability at 7.5 µM: 96%
  viability at 15 µM: 94.8%
  viability at 30 µM: 89.7%
  viability at 60 µM: 88.4%
[1]; [9]
  viability at 7.5 µM: 89%
  viability at 15 µM: 94.9%
  viability at 30 µM: 81.9%
  viability at 60 µM: 79.5%
[2]; 7.5 µM compound
  Mean Diff, (Predicted (LS) mean diff,) w/o menadione - w menadione: 8.308
[2]; 7.5 µM compound, w Menadione (40µM), 20240508 plate 012
  Cell viability raw signal, technical replicates: 27030 and 23198 and 28223 and 26549
[2]; 7.5 µM compound, w Menadione (40µM), 20240508 plate 013
  Cell viability raw signal, technical replicates: 27603 and 23558 and 27792 and 26913
[2]; 7.5 µM compound, w Menadione (40µM), 20240515 plate 014
  Cell viability raw signal, technical replicates: 28096 and 25755 and 28850 and 30838
[2]; 7.5 µM compound, w Menadione (40µM), 20240515 plate 015
  Cell viability raw signal, technical replicates: 27895 and 33778 and 30188 and 31212
[2]; 7.5 µM compound, w/o Menadione, 20240508 plate 012
  Cell viability raw signal, technical replicates: 385210 and 396370 and 371980 and 372320
[2]; 7.5 µM compound, w/o Menadione, 20240508 plate 013
  Cell viability raw signal, technical replicates: 405510 and 393590 and 402690 and 387370
[2]; 7.5 µM compound, w/o Menadione, 20240515 plate 014
  Cell viability raw signal, technical replicates: 380800 and 387250 and 402000 and 397370
[2]; 7.5 µM compound, w/o Menadione, 20240515 plate 015
  Cell viability raw signal, technical replicates: 356280 and 367960 and 366010 and 366080
[2]; 15 µM compound
  Mean Diff, (Predicted (LS) mean diff,) w/o menadione - w menadione: 17.8
[2]; 15 µM compound, w Menadione (40µM), 20240508 plate 012
  Cell viability raw signal, technical replicates: 22111 and 21413 and 21368 and 22937
[2]; 15 µM compound, w Menadione (40µM), 20240508 plate 013
  Cell viability raw signal, technical replicates: 69935* and 23670 and 27045 and 22274
[2]; 15 µM compound, w Menadione (40µM), 20240515 plate 014
  Cell viability raw signal, technical replicates: 28312 and 27245 and 29168 and 29878
[2]; 15 µM compound, w Menadione (40µM), 20240515 plate 015
  Cell viability raw signal, technical replicates: 27690 and 32043 and 28425 and 26586
[2]; 30 µM compound
  Mean Diff, (Predicted (LS) mean diff,) w/o menadione - w menadione: 11.65
[2]; 30 µM compound, w Menadione (40µM), 20240508 plate 012
  Cell viability raw signal, technical replicates: 24245 and 20350 and 24935 and 20723
[2]; 30 µM compound, w Menadione (40µM), 20240508 plate 013
  Cell viability raw signal, technical replicates: 21997 and 20914 and 24666 and 21857
[2]; 30 µM compound, w Menadione (40µM), 20240515 plate 014
  Cell viability raw signal, technical replicates: 26699 and 30187 and 27245 and 26622
[2]; 30 µM compound, w Menadione (40µM), 20240515 plate 015
  Cell viability raw signal, technical replicates: 24014 and 26245 and 23994 and 40225
[2]; 30 µM compound, w/o Menadione, 20240508 plate 012
  Cell viability raw signal, technical replicates: 348650 and 347840 and 366110 and 365510
[2]; 60 µM compound
  Mean Diff, (Predicted (LS) mean diff,) w/o menadione - w menadione: 4.361
[2]; 60 µM compound, w Menadione (40µM), 20240508 plate 012
  Cell viability raw signal, technical replicates: 158210* and 163010* and 19082* and 18545*
[2]; 60 µM compound, w Menadione (40µM), 20240508 plate 013
  Cell viability raw signal, technical replicates: 166210* and 174600* and 20028* and 18681*
[2]; 60 µM compound, w Menadione (40µM), 20240515 plate 014
  Cell viability raw signal, technical replicates: 33336 and 33031 and 28059 and 24828
[2]; 60 µM compound, w Menadione (40µM), 20240515 plate 015
  Cell viability raw signal, technical replicates: 185100* and 184480* and 111650* and 66878*
[2]; 60 µM compound, w/o Menadione, 20240508 plate 012
  Cell viability raw signal, technical replicates: 344220 and 331510 and 355900 and 344190
[2]; 60 µM compound, w/o Menadione, 20240508 plate 013
  Cell viability raw signal, technical replicates: 348460 and 354210 and 355750 and 353860
[2]; 60 µM compound, w/o Menadione, 20240515 plate 014
  Cell viability raw signal, technical replicates: 336500 and 373330 and 357790 and 375230
[2]; 60 µM compound, w/o Menadione, 20240515 plate 015
  Cell viability raw signal, technical replicates: 321900 and 321160 and 330420 and 326560
[3]
  viability at 24 h, 0.234375 µM: 106%
  viability at 24 h, 0.46875 µM: 99.9%
  viability at 24 h, 0.9375 µM: 104%
  viability at 24 h, 1.875 µM: 99.2%
  viability at 24 h, 3.75 µM: 93.6%
  viability at 24 h, 7.5 µM: 93.9%
  viability at 24 h, 15 µM: 86.8%
  viability at 24 h, 30 µM: 90.4%
[4]
  inhibition of Rlig1-AMP ligation (urea-PAGE): Ligation was inhibited; also recorded: fully inhibited
  HillSlope (best-fit value): 3.369
  Span (best-fit value): 96.63
  IC50: 3.86 µM
  LogIC50 (best-fit value): 0.5866
  Bottom (best-fit value): 4.368
  Top (best-fit value): 101
[4]; [10]
  inhibition at 30 µM: 100%
[4]; log Compound [µM] -0.0280287, replicates I-III, read-out: percentage inhibition (dose response curve for IC50)
  inhibition at 0.9375 µM: 5.58%
[4]; log Compound [µM] -0.329059, replicates I-III, read-out: percentage inhibition (dose response curve for IC50)
  inhibition at 0.46875 µM: 2.58%
[5]
  cytotoxicity (in words): no detectable cytotoxicity
  IC50 (Figure 3D: EC50 values for plot; log(inhibitor) vs. response -- Variable slope (four parameters)): 2607.3 µM and 1652.85 µM and 299.495 µM
  LogIC50 (log(inhibitor) vs. response -- Variable slope (four parameters)): 3.416 and 3.218 and 2.476
  EC50: > 30 µM

## Cc1cc(Nc2ccc(NC(=O)c3ccc(Nc4ccnc5[nH]ccc45)cc3)cc2)nc(N)n1 [Compound 46]
[3]
  viability at 24 h, 0.234375 µM: 104%
  viability at 24 h, 0.46875 µM: 98.9%
  viability at 24 h, 0.9375 µM: 97.1%
  viability at 24 h, 1.875 µM: 96.8%
  viability at 24 h, 3.75 µM: 94.8%
  viability at 24 h, 7.5 µM: 64.8%
  viability at 24 h, 15 µM: 23.1%
  viability at 24 h, 30 µM: 7.96%
[4]
  inhibition of Rlig1-AMP ligation (urea-PAGE): Ligation was inhibited; also recorded: inhibited ligase activity
  HillSlope (best-fit value): 6.864
  Span (best-fit value): 90.69
  IC50: 7.1 µM
  LogIC50 (best-fit value): 0.8514
  Bottom (best-fit value): 7.468
  Top (best-fit value): 98.16
[4]; [10]
  inhibition at 30 µM: 100%
[5]
  cytotoxicity (in words): comparatively high cytotoxicity
  IC50 (Figure 3D: EC50 values for plot; log(inhibitor) vs. response -- Variable slope (four parameters)): 8.158 µM and 9.993 µM and 11.5211 µM
  LogIC50 (log(inhibitor) vs. response -- Variable slope (four parameters)): 0.9116 and 0.9997 and 1.0615
  EC50: 9.42 µM
